Counter-ions that a name gives are not always drawn.
Key:
MMP-13 = MMP-13 (Homo sapiens, UniProt P45452); assay: MMP-13 inhibition (thiopeptide or fluorescent peptide substrate); type: biochemical
Experimental: (§1) The enzyme activity is measured by the rate of the color increase. The thiopeptide substrate is made up fresh as a 20 mM stock in 100% DMSO and the DTNB is dissolved in 100% DMSO as a 100 mM stock and stored in the dark at room temperature. Both the substrate and DTNB are diluted together to 1 mM with substrate buffer (50 mM HEPES pH 7.5, 5 mM CaCl2) before use. The stock of enzyme is diluted with buffer (50 mM HEPES, pH 7.5, 5 mM CaCl2, 0.02% Brij) to the desired final concentration.
(§2) Alternatively, a fluorescent peptide substrate is used. In this test procedure, the peptide substrate contains a fluorescent group and a quenching group. Upon cleavage of the substrate by an MMP, the fluorescence that is generated is quantitated on the fluorescence plate reader. The assay is run in HCBC assay buffer (50mM HEPES, pH 7.0, 5 mM Ca^+2, 0.02% Brij, 0.5% Cysteine), with human recombinant MMP-1, MMP-9, or MMP-13. The substrate is dissolved in methanol and stored frozen in 1 mM aliquots. For the assay, substrate and enzymes are diluted in HCBC buffer to the desired concentrations. Compounds are added to the 96 well plate containing enzyme and the reaction is started by the addition of substrate.
(§3) For either the thiopeptide or fluorescent peptide test procedures, the slope of the line is calculated and represents the reaction rate. The linearity of the reaction rate is confirmed (r^2 >0.85). The mean (x±sem) of the control rate is calculated and compared for statistical significance (p<0.05) with drug-treated rates using Dunnett's multiple comparison test.

MMP-9 = MMP-9 (Homo sapiens, UniProt P14780); assay: MMP-9 inhibition (thiopeptide or fluorescent peptide substrate); type: biochemical
Experimental: as §1, §2, §3

[1] = target: TNF-α converting enzyme (TACE) (Homo sapiens, UniProt P78536); assay: TACE inhibition (fluorescent peptidyl substrate); type: biochemical; details: read-out: IC50 (nM) or % Inhibition (µM) TACE
Experimental: Using 96-well black microtiter plates, each well receives a solution composed of 10 µL TACE (final concentration 1µg/mL), 70µL Tris buffer, pH 7.4 containing 10% glycerol (final concentration 10 mM), and 10 µL of test compound solution in DMSO (final concentration 1µM, DMSO concentration <1%) and incubated for 10 minutes at room temperature. The reaction is initiated by addition of a fluorescent peptidyl substrate (final concentration 100 µM) to each well and then shaking on a shaker for 5 sec.
The reaction is read (excitation 340 nm, emission 420 nm) for 10 min. and the increase in fluorescence over time is plotted as a linear line. The slope of the line is calculated and represents the reaction rate.
The linearity of the reaction rate is confirmed (r^2 >0.85). The mean (x±sem) of the control rate is calculated and compared for statistical significance (p<0.05) with drug-treated rates using Dunnett's multiple comparison test.

THP-1 cells = assay: THP-1 soluble protein assay (LPS-stimulated human monocytic THP-1 cells); type: cell-based; details: LPS-stimulated THP-1 cells; for inhibition at 3 µM: Homo sapiens, read-out: % Inhib. @ 3µM THP
Text: Mitogenic stimulation of THP-1 cells cause differentiation into macrophage like cells with concomitant secretion of tumor necrosis factor (TNF-a) and TNF receptor (TNF-R p75/80 and TNF-R p55/60) and Interleukin-8 (IL-8), among other proteins. In addition, non-stimulated THP-1 cells shed both the p75/80 and the p55/60 receptors over time. The release of membrane bound TNF-α and possibly TNF-R p75/80 and TNF-R p55/60, but not IL-8, is mediated by an enzyme called TNF-a converting enzyme or TACE.
THP-1 cells (from ATCC) are a human monocytic cell line which were obtained from the peripheral blood of a person with acute monocytic leukemia. They can be grown in culture and differentiated into macrophage like cells by stimulation with mitogens.
Each vial of cells are cultured for about two weeks prior to being used for an assay and then are used for only 4 to 6 weeks to screen compounds.
Cell exposure to DMSO was limited to 0.1 % final concentration. […] Compounds can be evaluated for their effect on basal (non-stimulated) shedding of the receptors by replacing the LPS with […] of THP-1 media. Plates are placed into an incubator set at 5% CO2 and at 37°C. After 4 hours of incubation, […] of tissue culture supernatant (TCS) is removed for use in an TNF-a ELISA. Following 24 hours of incubation, […] of TCS is removed and used for analysis in TNF-R p75/80, TNF-R p55/60 and IL-8 ELISAs.
In addition, at the 24 hours timepoint, and the cells for each treatment group are collected by resuspension in 500 µl/well of THP-1 media and transferred into a FACS tube. […] The samples are run on a Becton Dickinson FaxCaliber FLOW cytometry machine and the amount of dye taken up by each cell is measured in the high red wavelength (FL3). Only cells with compromised membranes (dead or dying) can take up PI. The percent of live cells is calculated by the number of cells not stained with PI, divided by the total number of cells in the sample. The viability values calculated for the drug treated groups were compared to the viability value calculated for the vehicle treated mitogen stimulated group ("vehicle positive control") to determine the "percent change from control". This "percent change from control" value is an indicator of drug toxicity.
The quantity of soluble TNF-a, TNF-R p75/80 and TNF-R p55/60 and IL-8 in the TCS of the THP-1 cell cultures are obtained with commercially available ELISAs from R&D Systems, by extrapolation from a standard curve generated with kit standards. The number of cells that either take up or exclude PI are measured by the FLOW cytometry machine and visualized by histograms using commercially available Cytologic software for each treatment group including all controls.
Biological variability in the magnitude of the response of THP-1 cell cultures requires that experiments be compared on the basis of percent change from "vehicle positive control" for each drug concentration. Percent change in each soluble protein evaluated from the "vehicle positive control" was calculated for each compound concentration with the following formula: % Change =(pg/ml(compound) - pg/ml (veh pos control))/(pg/ml (veh pos control) - pg/ml(veh neg control))x 100 [formula]
For the soluble protein (TNF-a, p75/80, p55/60, IL-8) studies under stimulated conditions, the mean pg/ml of duplicate wells were determined and the results expressed as percent change from "vehicle positive control". For the soluble protein (p75/80 and p55/60 receptors) studies under non-stimulated conditions, the mean pg/ml of duplicate wells were determined and the results expressed as percent change from "vehicle positive control" utilizing the following formula: % Change =(pg/ml (compound neg control) - pg/ml (veh neg control)/(pg/ml (veh neg control))X 100 [formula]
IC50 values for each compound are calculated by non-linear regression analysis using customized software utilizing the JUMP statistical package.

MMP-1 = target: T1, MMP-1 (Homo sapiens, UniProt P03956); assay: MMP-1 inhibition (thiopeptide or fluorescent peptide substrate); type: biochemical; details: for inhibition at 10 µM: read-out: IC50 (nM) or % Inhibition (µM) MMP-1; for IC50: plain number = IC50
T1 sequence (P03956 100-469): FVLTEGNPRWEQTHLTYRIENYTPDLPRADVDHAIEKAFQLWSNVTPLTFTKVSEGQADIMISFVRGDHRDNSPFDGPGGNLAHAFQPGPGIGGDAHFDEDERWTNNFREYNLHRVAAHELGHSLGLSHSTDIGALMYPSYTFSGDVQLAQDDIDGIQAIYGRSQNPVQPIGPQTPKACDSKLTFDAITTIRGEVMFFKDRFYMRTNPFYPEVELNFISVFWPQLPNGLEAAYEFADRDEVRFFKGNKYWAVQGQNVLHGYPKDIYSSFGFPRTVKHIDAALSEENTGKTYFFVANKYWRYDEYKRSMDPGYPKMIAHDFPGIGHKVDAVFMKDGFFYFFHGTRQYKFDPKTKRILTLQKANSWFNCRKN
Experimental: as §1, §2, §3

Chain of MMP-9 (P14780 94-707): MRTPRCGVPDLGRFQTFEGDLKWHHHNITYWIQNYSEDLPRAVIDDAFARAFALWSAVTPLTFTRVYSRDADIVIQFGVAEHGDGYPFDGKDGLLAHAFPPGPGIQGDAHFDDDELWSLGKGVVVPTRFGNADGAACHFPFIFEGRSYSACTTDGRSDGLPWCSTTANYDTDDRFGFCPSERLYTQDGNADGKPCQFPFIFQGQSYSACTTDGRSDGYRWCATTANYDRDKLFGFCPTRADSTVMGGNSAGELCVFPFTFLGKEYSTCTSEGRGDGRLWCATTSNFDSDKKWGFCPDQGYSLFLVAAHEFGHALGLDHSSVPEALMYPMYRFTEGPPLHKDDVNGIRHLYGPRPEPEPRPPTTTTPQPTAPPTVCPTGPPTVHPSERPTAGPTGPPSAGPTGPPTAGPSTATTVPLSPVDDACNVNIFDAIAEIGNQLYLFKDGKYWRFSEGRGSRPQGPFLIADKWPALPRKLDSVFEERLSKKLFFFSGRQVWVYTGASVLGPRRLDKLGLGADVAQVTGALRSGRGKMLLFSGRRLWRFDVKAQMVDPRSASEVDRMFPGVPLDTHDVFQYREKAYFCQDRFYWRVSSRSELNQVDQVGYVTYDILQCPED
Chain of TNF-α converting enzyme (TACE) (P78536 215-824, species assumed): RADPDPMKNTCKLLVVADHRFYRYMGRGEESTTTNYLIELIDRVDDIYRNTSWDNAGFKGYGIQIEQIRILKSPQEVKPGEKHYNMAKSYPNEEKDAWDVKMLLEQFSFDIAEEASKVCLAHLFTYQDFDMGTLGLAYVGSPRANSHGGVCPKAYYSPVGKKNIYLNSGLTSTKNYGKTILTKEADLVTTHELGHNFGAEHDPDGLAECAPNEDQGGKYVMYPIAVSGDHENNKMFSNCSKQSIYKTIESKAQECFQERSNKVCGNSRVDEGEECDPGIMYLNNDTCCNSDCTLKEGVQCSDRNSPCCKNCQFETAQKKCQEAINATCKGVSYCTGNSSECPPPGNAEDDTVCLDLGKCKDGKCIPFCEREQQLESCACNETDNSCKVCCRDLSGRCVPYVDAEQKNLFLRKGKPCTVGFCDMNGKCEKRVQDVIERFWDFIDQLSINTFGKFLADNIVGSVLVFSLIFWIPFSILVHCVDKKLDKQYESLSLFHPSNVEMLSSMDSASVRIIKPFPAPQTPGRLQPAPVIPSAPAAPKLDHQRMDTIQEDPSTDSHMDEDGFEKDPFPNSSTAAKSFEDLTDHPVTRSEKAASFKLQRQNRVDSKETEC

Compound | IC50 (MMP-13) | IC50 (MMP-9) | IC50 [1] | inhibition at 10 µM (MMP-1) | IC50 (MMP-1) | inhibition at 3 µM (THP-1 cells) | % Inhib. @ 3µM THP (THP-1 cells)
5-Bromo-2-[(4-butoxy-benzenesulfonyl)-methyl-amino]-N-hydroxy-3-methyl-benzamide [Example 39] | 68 nM | 21 nM | 67 nM |  | 2490 nM |  | 0%
COc1ccccc1C#CCOc1ccc(S(=O)(=O)N(C)c2c(C)cc(Br)cc2C(=O)NO)cc1 [Example 61, 5-Bromo-N-hydroxy-2-({4-[3-(2-methoxy-phenyl)-prop-2-ynyloxy]-benzenesulfonyl}-methyl-amino)-3-methyl-benzamide] | 1200 nM | 1510 nM | 193 nM | 52% |  | 0% | 
Cc1cc(Br)cc(C(=O)NO)c1N(C)S(=O)(=O)c1ccc(OCC#Cc2cccc(O)c2)cc1 [Example 84, 5-Bromo-N-hydroxy-2-({4-[3-(3-hydroxy-phenyl)-prop-2-ynyloxy]-benzenesulfonyl}-methyl-amino)-3-methyl-benzamide] | 189 nM | 694 nM | 34 nM |  | 113 nM | 0% | 
Cc1cc(Br)cc(C(=O)NO)c1N(C)S(=O)(=O)c1ccc(OCC#CCN2CCCC2)cc1 [Example 65, 5-Bromo-N-hydroxy-3-methyl-2-{methyl-[4-(4-pyrrolidin-1-yl-but-2-ynyloxy)-benzenesulfonyl]-amino}-benzamide] | 537 nM | 602 nM | 148 nM |  | 3350 nM | 12% | 
CC#CCOc1ccc(S(=O)(=O)N(C)c2c(C)cc(I)cc2C(=O)NO)cc1 [Example 63, 2-[(4-But-2-ynyloxy-benzenesulfonyl)-methyl-amino]-N-hydroxy-5-iodo-3-methyl-benzamide] | 275 nM | 840 nM | 16 nM |  | 901 nM | 87% | 
C#CCOc1ccc(S(=O)(=O)N(C)c2c(C)cc(Br)cc2C(=O)NO)cc1 [Example 53, 5-Bromo-N-hydroxy-3-methyl-2-[methyl-(4-prop-2-ynyloxy-benzenesulfonyl)-amino]-benzamide] | 52 nM | 15 nM | 11 nM |  | 113 nM | 55% | 

Further lines, with some results ahead:

IC50 (MMP-13) | IC50 (MMP-9) | IC50 [1] | inhibition at 10 µM (MMP-1) | IC50 (MMP-1) | Compound | inhibition at 3 µM (THP-1 cells) | % Inhib. @ 3µM THP (THP-1 cells)
383 nM | 790 nM | 127 nM | 39% |  | Cc1cc(Br)cc(C(=O)NO)c1N(C)S(=O)(=O)c1ccc(OCC#CCNCCN(C)C)cc1 [Example 34, 5-Bromo-2-({4-[4-(2-dimethylamino-ethylamino)-but-2-ynyloxy]-benzenesulfonyl}-methyl-amino)-N-hydroxy-3-methyl-benzamide] | 22% | 
935 nM | 671 nM | 91 nM |  | 1030 nM | COc1cccc(C#CCOc2ccc(S(=O)(=O)N(C)c3c(C)cc(Br)cc3C(=O)NO)cc2)c1 [Example 60, 5-Bromo-N-hydroxy-2-({4-[3-(3-methoxy-phenyl)-prop-2-ynyloxy]-benzenesulfonyl}-methyl-amino)-3-methyl-benzamide] | 1% | 
47 nM | 28 nM | 42 nM |  | 1920 nM | CC#CCOc1ccc(S(=O)(=O)N(C)c2c(CN3CCN(C)CC3)cc(-c3ccccc3)cc2C(=O)NO)cc1 [Example 76, 4-[(4-But-2-ynyloxy-benzenesulfonyl)-methyl-amino]-5-(4-methyl-piperazin-1-ylmethyl)-biphenyl-3-carboxylic acid hydroxyamide dihydro-chloride salt] | 95% | 
358 nM | 232 nM | 47 nM |  | 2360 nM | CCCC#CCOc1ccc(S(=O)(=O)N(C)c2c(C)cc(Br)cc2C(=O)NO)cc1 [Example 57, 5-Bromo-2-[(4-hex-2-ynyloxy-benzenesulfonyl)-methyl-amino]-N-hydroxy-3-methyl-benzamide] | 11% | 
233 nM | 387 nM | 11 nM |  | 7800 nM | COCC#CCOc1ccc(S(=O)(=O)N(C)c2c(C)cc(Br)cc2C(=O)NO)cc1 [Example 58, 5-Bromo-N-hydroxy-2-{[4-(4-methoxy-but-2-ynyloxy)-benzenesulfonyl]-methyl-amino}-3-methyl-benzamide] | 46% | 
908 nM | 1200 nM | 29 nM | 32% |  | Cc1cc(Br)cc(C(=O)NO)c1N(C)S(=O)(=O)c1ccc(OCC#CCNCCCN(C)C)cc1 [Example 33, 5-Bromo-2-({4-[4-(3-dimethylamino-propylamino)-but-2-ynyloxy]-benzenesulfonyl}-methyl-amino)-N-hydroxy-3-methyl-benzamide] | 14% | 
